Experimental data as given in publication PMC5971061, “Differential Effects of Linkers on the Activity of Amphiphilic Tobramycin Antifungals” (Molecules : A Journal of Synthetic Chemistry and Natural …, 2018).
Values after ≈ are worked out from the molar mass of the structure shown. Read-outs that look alike come from different tables or passages of the source.

How the values were obtained:
[1] = system: Cryptococcus neoformans clinical isolate CN2; assay: MIC, broth microdilution (CLSI M27-A3), CN2; format: cell-based; details: MIC-0, CN2, 35 °C 48 h
Description: (§1) The final concentrations of compounds 3, 4, 7a, 7b, 9, and 16, as well as that of TOB tested in this study ranged from 0.24–62.5 μg/mL. CAS was used as a positive control and the final concentrations tested for CAS ranged from 0.03–31.3 μg/mL. Briefly, overnight yeast cultures were grown in yeast peptone dextrose (YPD) broth and the cell density was adjusted to an OD600 of 0.12 (~1 × 10^6 CFU/mL) by using a spectrophotometer. Yeast cell suspensions were further diluted to achieve 1–5 × 10^3 CFU/mL in RPMI 1640 medium, and 100 μL of these yeast cells was added to 96-well microtiter plates containing RPMI 1640 medium and titrated compounds. Each test was performed in triplicate. The plates were incubated at 35 °C for 48 h.

[2] = system: C. albicans ATCC MYA-2876(S) (strain C); assay: MIC, broth microdilution (CLSI M27-A3), yeast strain C; format: cell-based; details: Candida albicans; MIC-0, strain C, 35 °C 48 h
Description: as §1

[3] = system: Cryptococcus neoformans clinical isolate CN1; assay: MIC, broth microdilution (CLSI M27-A3), CN1; format: cell-based; details: MIC-0, CN1, 35 °C 48 h
Description: as §1

[4] = system: C. albicans ATCC 10231 (strain A); assay: Membrane permeabilization assay using propidium iodide staining; format: cell-based, Candida albicans; details: 7b at 2× MIC or 4× MIC; TOB 31.3 μg/mL; 2 h treatment; compared to untreated cells
Description: A fresh culture of C. albicans ATCC 10231 (strain A) was prepared in 5 mL of YPD broth in a Falcon tube and was grown overnight at 35 °C at 200 rpm. […] TOB (31.3 μg/mL) was used as a negative control. The cell suspensions were then treated for 2 h at 35 °C with continuous agitation (200 rpm). To prepare a positive control sample, C. albicans ATCC 10231 (strain A) cells were killed by heat shock at 95 °C for 5 min as described by Ocampo and Barrientos. The cells were then centrifuged and resuspended in 500 μL of PBS buffer (pH 7.2 adjusted at room temperature). Subsequently, the cells were treated with propidium iodide (9 μM, final concentration) and incubated for 20 min at room temperature in the dark. […] The data were obtained from at least two independent experiments. The images were also post-processed, utilizing automatic contrast and brightness setting in Microsoft PowerPoint 2013 to eliminate background noise.

BEAS-2B cell line = assay: In vitro cytotoxicity assay (resazurin), BEAS-2B; format: cell-based, human; details: 24 h; for IC50: Homo sapiens, resazurin
Description: (§2) Mammalian cytotoxicity assays were performed as previously described with minor modifications. The normal human bronchial epithelial cells BEAS-2B and the human lung carcinoma epithelial cells A549 were grown in DMEM containing 10% fetal bovine serum (FBS) and 1% antibiotics. The confluent cells were then trypsinized with 0.05% trypsin and 0.53 mM EDTA, and resuspended in fresh DMEM medium. The cells were transferred into 96-well microtiter plates at a density of 3000 cells/well and were grown for 24 h. The following day, the medium was replaced by a fresh culture medium containing serially diluted compounds 3, 4, 7a, 7b, and 9, as well as the parent drug TOB at final concentrations of 0.48–62.5 μg/mL or sterile ddH2O (negative control). The cells were incubated for an additional 24 h at 37 °C with 5% CO2 in a humidified incubator. To evaluate cell survival, each well was treated with 10 μL (25 μg/mL) of resazurin sodium salt (Sigma-Aldrich) for 4–6 h. Metabolically active cells can convert resazurin (blue) to the highly fluorescent dye resorufin (pink), which was detected at λ560 excitation and λ590 emission wavelengths by using a SpectraMax M5 plate reader. Triton X-100® (1% v/v) gave the complete loss of cell viability and was used as the positive control. The percentage survival rates were calculated by using the following formula: % cell survival = [(fluorescence of sample) − (fluorescence of blank)] × 100/[(fluorescence of negative control) − (fluorescence of blank)].

[5] = system: C. albicans ATCC 64124 (strain B); assay: MIC, broth microdilution (CLSI M27-A3), yeast strain B; format: cell-based; details: Candida albicans, ATCC64124; MIC-0, strain B, 35 °C 48 h
Description: as §1

[6] = system: Aspergillus flavus ATCC MYA-3631 (strain K); assay: MIC, filamentous fungi (CLSI M38-A2), strain K; format: cell-based; details: MIC-0, strain K, 35 °C 72 h
Description: The spores were harvested from sporulating cultures growing on potato dextrose agar (PDA) by filtration through sterile glass wool and enumerated by using a hemocytometer (Hausser Scientific, Horsham, PA, USA) to obtain the desired inoculum size. Two-fold serial dilutions of compounds 3, 4, 7a, 7b, 9, and 16, as well as CAS and TOB were made in sterile 96-well microtiter plates to obtain the final concentration range of 0.24–62.5 μg/mL for TOB and TOB derivatives as well as 0.03–31.3 μg/mL for CAS in the RPMI 1640 medium. The spore suspensions were added to the wells to afford a final concentration of 5 × 10^5 spores/mL. The plates were incubated at 35 °C for 72 h. […] Each test was performed in triplicate.

A549 cell line = assay: In vitro cytotoxicity assay (resazurin), A549; format: cell-based, human; details: for IC50: Homo sapiens, A549, 24 h, resazurin
Description: as §2

[7] = system: murine red blood cells (mRBCs); assay: Hemolytic activity assay; format: cell-based; details: at 3.9 μg/mL, 2- to 8-fold their MIC values against the three C. neoformans clinical isolates
Procedure, shortened: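 Murine RBCs (5 × 10^6 erythrocytes/mL final) incubated with two-fold serial dilutions of compound (0.48–62.5 μg/mL final) in PBS for 1 h at 37 °C. Hemolysis by absorbance, expressed as % relative to 1% Triton X-100 after blank (PBS) subtraction.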

[8] = Aspergillus flavus, 72 h, read-out: MIC

Row | Compound | MIC [1] | MIC [2] | MIC [3] | propidium iodide (PI) dye uptake (in words) [4] | toxicity (in words) (BEAS-2B cell line; 0.48-62.5 μg/mL) | MIC [5] | MIC [6, 8] | toxicity (in words) (A549 cell line; A549, 0.48-62.5 μg/mL, 24 h) | mRBCs lysed [7] | IC50 (BEAS-2B cell line) | IC50 (A549 cell line) | MIC [6]
1 | NC[C@H]1O[C@H](O[C@H]2[C@H](O)[C@@H](O[C@H]3O[C@H](CO)[C@@H](O)[C@H](N)[C@H]3O)[C@H](N)C[C@@H]2N)[C@H](N)C[C@@H]1O [TOB, tobramycin] | > 62.5 µg/mL | > 62.5 µg/mL | > 62.5 µg/mL | negligible staining | little to no toxicity | > 62.5 µg/mL | > 62.5 µg/mL | little to no toxicity | – | – | – | –
2 | CCCCCCCCCCCC(=O)NC[C@H]1O[C@H](O[C@@H]2[C@@H](O)[C@H](O[C@H]3O[C@H](CN)[C@@H](O)C[C@H]3N)[C@@H](N)C[C@H]2N)[C@H](O)[C@@H](N)[C@@H]1O [Compound 9, O-3-Amino-3,6-dideoxy-6-[(1-oxododecyl)amino]-α-D-glucopyranosyl-(1→6)-O-[2,6-diamino-2,3,6-trideoxy-α-D-ribo-hexopyranosyl-(1→4)]-2-deoxy-D-streptamine] | 0.975 µg/mL (≈ 1.5 µM) | 31.3 µg/mL (≈ 48.2 µM) | 0.975 µg/mL (≈ 1.5 µM) | – | – | 15.6 µg/mL (≈ 24 µM) | – | – | up to 13% | > 62.5 µg/mL | > 62.5 µg/mL | –
3 | CCCCCCCCCCCCSC[C@H]1O[C@H](O[C@@H]2[C@@H](O)[C@H](O[C@H]3O[C@H](CN)[C@@H](O)C[C@H]3N)[C@@H](N)C[C@H]2N)[C@H](O)[C@@H](N)[C@@H]1O [Compound 3, O-3-Amino-3-deoxy-6-S-dodecyl-6-thio-α-D-glucopyranosyl-(1→6)-O-[2,6-diamino-2,3,6-trideoxy-α-D-ribo-hexopyranosyl-(1→4)]-2-deoxy-D-streptamine] | 0.48 µg/mL (≈ 0.736 µM) | 15.6 µg/mL (≈ 23.9 µM) | 0.975 µg/mL (≈ 1.5 µM) | – | – | 15.6 µg/mL (≈ 23.9 µM) | 7.8 to 31.3 µg/mL (≈ 12 to 48 µM) | – | up to 13% | 31.3 to 62.5 µg/mL (≈ 48 to 95.9 µM) | – | 15.6 µg/mL (≈ 23.9 µM)
4 | CCCCCCCCCCCCc1cn(C[C@H]2O[C@H](O[C@@H]3[C@@H](O)[C@H](O[C@H]4O[C@H](CN)[C@@H](O)C[C@H]4N)[C@@H](N)C[C@H]3N)[C@H](O)[C@@H](N)[C@@H]2O)nn1 [Compound 7b, O-3-Amino-3,6-dideoxy-6-(4-dodecyl-1H-1,2,3-triazol-1-yl)-α-D-glucopyranosyl-(1→6)-O-[2,6-diamino-2,3,6-trideoxy-α-D-ribo-hexopyranosyl-(1→4)]-2-deoxy-D-streptamine] | 0.48 µg/mL (≈ 0.699 µM) | 15.6 µg/mL (≈ 22.7 µM) | 0.48 µg/mL (≈ 0.699 µM) | larger influx of PI dye | – | 3.9 µg/mL (≈ 5.68 µM) | 7.8 to 31.3 µg/mL (≈ 11.4 to 45.6 µM) | – | up to 13% | > 62.5 µg/mL | > 62.5 µg/mL | 7.8 µg/mL (≈ 11.4 µM)
5 | CCCCCCCCCCc1cn(C[C@H]2O[C@H](O[C@@H]3[C@@H](O)[C@H](O[C@H]4O[C@H](CN)[C@@H](O)C[C@H]4N)[C@@H](N)C[C@H]3N)[C@H](O)[C@@H](N)[C@@H]2O)nn1 [Compound 7a, O-3-Amino-3,6-dideoxy-6-(4-decyl-1H-1,2,3-triazol-1-yl)-α-D-glucopyranosyl-(1→6)-O-[2,6-diamino-2,3,6-trideoxy-α-D-ribo-hexopyranosyl-(1→4)]-2-deoxy-D-streptamine] | 0.975 µg/mL (≈ 1.48 µM) | 62.5 µg/mL (≈ 94.9 µM) | 0.975 µg/mL (≈ 1.48 µM) | – | – | 31.3 µg/mL (≈ 47.5 µM) | – | – | up to 13% | > 62.5 µg/mL | > 62.5 µg/mL | –
6 | CCCCCCCCCCCCS(=O)(=O)C[C@H]1O[C@H](O[C@@H]2[C@@H](O)[C@H](O[C@H]3O[C@H](CN)[C@@H](O)C[C@H]3N)[C@@H](N)C[C@H]2N)[C@H](O)[C@@H](N)[C@@H]1O [Compound 4, O-3-Amino-3,6-dideoxy-6-(dodecylsulfonyl)-α-D-glucopyranosyl-(1→6)-O-[2,6-diamino-2,3,6-trideoxy-α-D-ribo-hexopyranosyl-(1→4)]-2-deoxy-D-streptamine] | 0.48 µg/mL (≈ 0.702 µM) | 15.6 µg/mL (≈ 22.8 µM) | 1.95 µg/mL (≈ 2.85 µM) | – | – | 31.3 µg/mL (≈ 45.8 µM) | – | – | up to 13% | > 62.5 µg/mL | > 62.5 µg/mL | –
